# Assay results taken from PubChem BioAssay (NCI).
#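 At the GI50, growth is halved. TGI denotes the concentration required for complete inhibition of growth.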
# What was measured:
# Experiment in all cases: growth of human tumour cells (NCI), 384-well format
# 786-0 renal = system: 786-0 renal
# A498 renal = system: A498 renal
# A549 NSCLC = system: A549 NSCLC
# ACHN renal = system: ACHN renal
# BT-549 breast = system: BT-549 breast
# CAKI-1 renal = system: CAKI-1 renal
# CCRF-CEM leukemia = system: CCRF-CEM leukemia
# COLO 205 colon = system: COLO 205 colon
# DU-145 prostate = system: DU-145 prostate
# EKVX NSCLC = system: EKVX NSCLC
# HCC-2998 colon = system: HCC-2998 colon
# HCT-116 colon = system: HCT-116 colon
# HCT-15 colon = system: HCT-15 colon
# HL-60(TB) leukemia = system: HL-60(TB) leukemia
# HOP-62 NSCLC = system: HOP-62 NSCLC
# HOP-92 NSCLC = system: HOP-92 NSCLC
# HT29 colon = system: HT29 colon
# IGROV1 ovarian = system: IGROV1 ovarian
# K-562 leukemia = system: K-562 leukemia
# KM12 colon = system: KM12 colon
# LOX IMVI melanoma = system: LOX IMVI melanoma
# M14 melanoma = system: M14 melanoma
# MALME-3M melanoma = system: MALME-3M melanoma
# MCF7 breast = system: MCF7 breast
# MDA-MB-231 breast = system: MDA-MB-231 breast
# MDA-MB-435 melanoma = system: MDA-MB-435 melanoma
# MDA-MB-468 breast = system: MDA-MB-468 breast
# MOLT-4 leukemia = system: MOLT-4 leukemia
# NCI-H226 lung = system: NCI-H226 lung
# NCI-H23 lung = system: NCI-H23 lung
# NCI-H322M lung = system: NCI-H322M lung
# NCI-H460 NSCLC = system: NCI-H460 NSCLC
# NCI-H522 lung = system: NCI-H522 lung
# NCI/ADR-RES ovarian = system: NCI/ADR-RES ovarian
# OVCAR-3 ovarian = system: OVCAR-3 ovarian
# OVCAR-4 ovarian = system: OVCAR-4 ovarian
# OVCAR-5 ovarian = system: OVCAR-5 ovarian
# OVCAR-8 ovarian = system: OVCAR-8 ovarian
# PC-3 prostate = system: PC-3 prostate
# RPMI-8226 leukemia = system: RPMI-8226 leukemia
# RXF 393 renal = system: RXF 393 renal
# SF-268 CNS = system: SF-268 CNS
# SF-295 CNS = system: SF-295 CNS
# SF-539 CNS = system: SF-539 CNS
# SK-MEL-2 melanoma = system: SK-MEL-2 melanoma
# SK-MEL-28 melanoma = system: SK-MEL-28 melanoma
# SK-MEL-5 melanoma = system: SK-MEL-5 melanoma
# SK-OV-3 ovarian = system: SK-OV-3 ovarian
# SN12C renal = system: SN12C renal
# SNB-19 CNS = system: SNB-19 CNS
# SNB-75 CNS = system: SNB-75 CNS
# SR leukemia = system: SR leukemia
# SW-620 colon = system: SW-620 colon
# T-47D breast = system: T-47D breast
# TK-10 renal = system: TK-10 renal
# U251 glioblastoma = system: U251 glioblastoma
# UACC-257 melanoma = system: UACC-257 melanoma
# UACC-62 melanoma = system: UACC-62 melanoma
# UO-31 renal = system: UO-31 renal
smiles,measurement,setting,value
COc1ccc(Cl)c(Nc2nc3ccccc3nc2NS(=O)(=O)c2cccc(NC(=O)C(C)(C)N)c2)c1,GI50,786-0 renal,9.77 µM
same,TGI,786-0 renal,22.6 µM
same,GI50,A498 renal,6.64 µM
same,TGI,A498 renal,19.5 µM
same,GI50,A549 NSCLC,10.5 µM
same,TGI,A549 NSCLC,22.4 µM
same,GI50,ACHN renal,10.2 µM
same,TGI,ACHN renal,23.3 µM
same,GI50,BT-549 breast,3.17 µM
same,TGI,BT-549 breast,14.1 µM
same,GI50,CAKI-1 renal,7.59 µM
same,TGI,CAKI-1 renal,21.7 µM
same,GI50,CCRF-CEM leukemia,12 µM
same,TGI,CCRF-CEM leukemia,24.4 µM
same,GI50,COLO 205 colon,11.3 µM
same,TGI,COLO 205 colon,23.5 µM
same,GI50,DU-145 prostate,11.4 µM
same,TGI,DU-145 prostate,24.4 µM
same,GI50,EKVX NSCLC,4.81 µM
same,TGI,EKVX NSCLC,19.5 µM
same,GI50,HCC-2998 colon,8.3 µM
same,TGI,HCC-2998 colon,22.6 µM
same,GI50,HCT-116 colon,14.7 µM
same,TGI,HCT-116 colon,28 µM
same,GI50,HCT-15 colon,12.3 µM
same,TGI,HCT-15 colon,25 µM
same,GI50,HL-60(TB) leukemia,2690 nM
same,TGI,HL-60(TB) leukemia,10.7 µM
same,GI50,HOP-62 NSCLC,13.6 µM
same,TGI,HOP-62 NSCLC,26.6 µM
same,GI50,HOP-92 NSCLC,977 nM
same,TGI,HOP-92 NSCLC,5.87 µM
same,GI50,HT29 colon,10.2 µM
same,TGI,HT29 colon,21.9 µM
same,GI50,IGROV1 ovarian,1380 nM
same,TGI,IGROV1 ovarian,3.79 µM
same,GI50,K-562 leukemia,13.6 µM
same,TGI,K-562 leukemia,26.6 µM
same,GI50,KM12 colon,13.7 µM
same,TGI,KM12 colon,26.7 µM
same,GI50,LOX IMVI melanoma,12.8 µM
same,TGI,LOX IMVI melanoma,25.4 µM
same,GI50,M14 melanoma,12.5 µM
same,TGI,M14 melanoma,25.1 µM
same,GI50,MALME-3M melanoma,9.58 µM
same,TGI,MALME-3M melanoma,21.6 µM
same,GI50,MCF7 breast,2760 nM
same,TGI,MCF7 breast,14.5 µM
same,GI50,MDA-MB-231 breast,14.3 µM
same,TGI,MDA-MB-231 breast,27.5 µM
same,GI50,MDA-MB-435 melanoma,12.5 µM
same,TGI,MDA-MB-435 melanoma,25.1 µM
same,GI50,MDA-MB-468 breast,1840 nM
same,TGI,MDA-MB-468 breast,10.1 µM
same,GI50,MOLT-4 leukemia,2370 nM
same,TGI,MOLT-4 leukemia,7.66 µM
same,GI50,NCI-H226 lung,10.9 µM
same,TGI,NCI-H226 lung,22.9 µM
same,GI50,NCI-H23 lung,4.73 µM
same,TGI,NCI-H23 lung,20.1 µM
same,GI50,NCI-H322M lung,10.2 µM
same,TGI,NCI-H322M lung,23.4 µM
same,GI50,NCI-H460 NSCLC,5.5 µM
same,TGI,NCI-H460 NSCLC,18.5 µM
same,GI50,NCI-H522 lung,9.12 µM
same,TGI,NCI-H522 lung,21.6 µM
same,GI50,NCI/ADR-RES ovarian,11 µM
same,TGI,NCI/ADR-RES ovarian,23.2 µM
same,GI50,OVCAR-3 ovarian,3.11 µM
same,TGI,OVCAR-3 ovarian,15.5 µM
same,GI50,OVCAR-4 ovarian,10.2 µM
same,TGI,OVCAR-4 ovarian,24.4 µM
same,GI50,OVCAR-5 ovarian,9.79 µM
same,TGI,OVCAR-5 ovarian,22.3 µM
same,GI50,OVCAR-8 ovarian,12.2 µM
same,TGI,OVCAR-8 ovarian,24.9 µM
same,GI50,PC-3 prostate,4.02 µM
same,TGI,PC-3 prostate,16.3 µM
same,GI50,RPMI-8226 leukemia,3.2 µM
same,TGI,RPMI-8226 leukemia,11.4 µM
same,GI50,RXF 393 renal,2380 nM
same,TGI,RXF 393 renal,8.35 µM
same,GI50,SF-268 CNS,10.9 µM
same,TGI,SF-268 CNS,22.9 µM
same,GI50,SF-295 CNS,5.29 µM
same,TGI,SF-295 CNS,17.9 µM
same,GI50,SF-539 CNS,8.54 µM
same,TGI,SF-539 CNS,21.1 µM
same,GI50,SK-MEL-2 melanoma,11.7 µM
same,TGI,SK-MEL-2 melanoma,24.6 µM
same,GI50,SK-MEL-28 melanoma,3.91 µM
same,TGI,SK-MEL-28 melanoma,16.7 µM
same,GI50,SK-MEL-5 melanoma,12.8 µM
same,TGI,SK-MEL-5 melanoma,25.5 µM
same,GI50,SK-OV-3 ovarian,5.4 µM
same,TGI,SK-OV-3 ovarian,19.3 µM
same,GI50,SN12C renal,8.86 µM
same,TGI,SN12C renal,21.3 µM
same,GI50,SNB-19 CNS,12.2 µM
same,TGI,SNB-19 CNS,24.8 µM
same,GI50,SNB-75 CNS,2430 nM
same,TGI,SNB-75 CNS,10.1 µM
same,GI50,SR leukemia,8.2 µM
same,TGI,SR leukemia,21.6 µM
same,GI50,SW-620 colon,10.2 µM
same,TGI,SW-620 colon,22.9 µM
same,GI50,T-47D breast,1570 nM
same,TGI,T-47D breast,7.84 µM
same,GI50,TK-10 renal,5.77 µM
same,TGI,TK-10 renal,19.5 µM
same,GI50,U251 glioblastoma,11.8 µM
same,TGI,U251 glioblastoma,24.3 µM
same,GI50,UACC-257 melanoma,11.6 µM
same,TGI,UACC-257 melanoma,24.2 µM
same,GI50,UACC-62 melanoma,6.72 µM
same,TGI,UACC-62 melanoma,19.6 µM
same,GI50,UO-31 renal,2730 nM
same,TGI,UO-31 renal,13.3 µM
